Laboratory results: PMC12276006, “Structural basis for sensitivity and acquired resistance of fungal cap guanine-N7 methyltransferases to the antifungal antibiotic sinefungin” (Nucleic Acids Research, 2025)
Where “and” joins values, the source holds several entries; their conditions need not be identical. Equal entries are not always repeated. Where two headings read alike, the source gives them in different places.

Experiments:
[1] = biological target: T1, KlAbd1 (K. lactis cap methyltransferase Abd1, wild-type) (Kluyveromyces lactis, UniProt Q6CKI0); assay: Inhibition of GpppA methylation by KlAbd1 (LC-MS/MS assay); assay type: biochemical; conditions: for IC50: wild-type KlAbd1 250 nM, 100 μM SAM, 250 μM GpppA, 30°C, 10 min
T1 construct: aa 1–426); His10-Smt3 (N, cleaved yes); made in house; host or cells: Escherichia coli BL21 (DE3) CodonPlus RIL
T1 sequence (Q6CKI0 whole entry, the tested form may be a part): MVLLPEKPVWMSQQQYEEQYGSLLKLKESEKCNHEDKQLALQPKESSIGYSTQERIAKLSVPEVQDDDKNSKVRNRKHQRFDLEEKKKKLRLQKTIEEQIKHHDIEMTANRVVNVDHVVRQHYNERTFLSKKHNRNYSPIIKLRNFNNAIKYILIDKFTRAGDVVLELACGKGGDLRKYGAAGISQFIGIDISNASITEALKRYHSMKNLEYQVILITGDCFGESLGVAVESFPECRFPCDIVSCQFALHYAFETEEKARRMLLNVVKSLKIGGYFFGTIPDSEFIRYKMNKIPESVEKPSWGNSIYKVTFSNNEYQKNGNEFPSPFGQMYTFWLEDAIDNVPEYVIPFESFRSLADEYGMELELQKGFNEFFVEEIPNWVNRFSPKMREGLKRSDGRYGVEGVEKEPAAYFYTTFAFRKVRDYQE
Method: (§1) Reactions (50 μl) were performed in triplicate by incubating 250 nM cap methyltransferases with 100 μM SAM and 250 μM GpppA or 2 mM GTP at 30°C in a buffer consisting of 200 mM NaCl, 50 mM Tris–HCl (pH 8.2), and 5 mM βME. Samples (10 μl aliquots) were withdrawn at specified time points (KlAbd1s: 0, 2, 5, 10, and 15 min, Fig. 1A; ScAbd1s: 0, 5, 10, 15, and 20 min, Fig. 4A) and quenched with 10 μl of 100 mM H2SO4 and 50 μM L-tryptophan, and then stored at −80°C pending liquid chromatography-tandem mass spectrometry (LC–MS/MS) analyses.
(§2) The quenched samples were thawed and centrifuged at 4000 × g at 4°C for 30 min to pellet denatured protein and the supernatants were transferred to a 96-well plate for analysis. Methylation was measured via HPLC with detection by MS conducted on an Agilent 1200 HPLC system coupled with a 6490 QQQ (Agilent Technologies). Assay samples were separated on an InfinityLab Poroshell 120 HILIC-Z column (2.1 mm × 100 mm, 2.7 μm particle size; Agilent Technologies) equilibrated in NH4Ac buffer [A: 10% 10 mM NH4Ac, pH 9.0, and 500 μM methylene diphosphonic acid/90% acetonitrile (ACN); B: 90% 10 mM NH4Ac, pH 9.0, and 500 μM methylene diphosphonic acid/10% ACN] with a flow rate 400 μl/min. The eluents of the column were directed to an electrospray ion source, connected to the QQQ. Samples were analyzed by the QQQ using multiple reaction monitoring (MRM) in negative mode, which measures peak intensities of the product ions of m^7GpppA (785: 408, 620 m/z) or m^7GTP (536.0: 159.0, 371.0 m/z) and the internal standard, L-tryptophan (203: 116, 141.9 m/z). The resultant peak intensities were then integrated. L-Tryptophan was used as an internal standard to perform cross-sample analysis. The m^7GpppA or m^7GTP product ion integrated intensities were normalized to the integrated ion intensity of L-tryptophan, yielding the ISTD. […] ISTDs obtained from reaction samples quenched at specified time points were then used to interpolate either m^7GpppA or m^7GTP concentrations using the calibration curves and used for quantification. […]

[2] = biological target: T2, ScAbd1WT (Saccharomyces cerevisiae, UniProt P32783); assay: Inhibition of GpppA methylation by wild-type ScAbd1 (LC-MS/MS assay); assay type: biochemical; conditions: for IC50: ScAbd1WT 250 nM, 100 μM SAM, 250 μM GpppA, 30°C, 20 min
T2 construct: aa 1–436); made in house; host or cells: Escherichia coli BL21 (DE3) CodonPlus RIL
T2 sequence (P32783 whole entry, the tested form may be a part): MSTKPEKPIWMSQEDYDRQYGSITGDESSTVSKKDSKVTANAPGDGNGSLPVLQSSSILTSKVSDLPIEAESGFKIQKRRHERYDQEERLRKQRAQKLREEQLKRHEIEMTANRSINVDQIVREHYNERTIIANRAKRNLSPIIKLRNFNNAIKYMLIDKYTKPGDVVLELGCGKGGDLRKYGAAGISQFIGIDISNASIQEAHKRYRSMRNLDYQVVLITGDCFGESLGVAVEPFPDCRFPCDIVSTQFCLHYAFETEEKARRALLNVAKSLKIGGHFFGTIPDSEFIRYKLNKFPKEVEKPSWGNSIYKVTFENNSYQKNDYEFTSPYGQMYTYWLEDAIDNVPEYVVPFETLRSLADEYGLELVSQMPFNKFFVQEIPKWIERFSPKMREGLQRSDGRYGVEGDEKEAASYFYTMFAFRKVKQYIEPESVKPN
Method: as §1, §2

[3] = biological target: T3, ScAbd1-E124K-K163R-K311R-F387Y-Y416F (Saccharomyces cerevisiae, UniProt P32783, E124K/F387Y/K163R/K311R/Y416F); assay: Inhibition of GpppA methylation by ScAbd1-E124K-K163R-K311R-F387Y-Y416F; assay type: biochemical; conditions: ScAbd1-E124K-K163R-K311R-F387Y-Y416F 250 nM, 100 μM SAM, 250 μM GpppA, 30°C, 20 min
T3 construct: aa 1–436); made in house; host or cells: Escherichia coli BL21 (DE3) CodonPlus RIL
T3 sequence (P32783 whole entry E124K/K163R/K311R/F387Y/Y416F, the tested form may be a part): as the sequence (P32783 whole entry, the tested form may be a part) above, with E124K, K163R, K311R, F387Y, Y416F counted along it
Method: as §1
(§3) The quenched samples were thawed and centrifuged at 4000 × g at 4°C for 30 min to pellet denatured protein and the supernatants were transferred to a 96-well plate for analysis. Methylation was measured via HPLC with detection by MS conducted on an Agilent 1200 HPLC system coupled with a 6490 QQQ (Agilent Technologies). […] Samples were analyzed by the QQQ using multiple reaction monitoring (MRM) in negative mode, which measures peak intensities of the product ions of m^7GpppA (785: 408, 620 m/z) or m^7GTP (536.0: 159.0, 371.0 m/z) and the internal standard, L-tryptophan (203: 116, 141.9 m/z). […] ISTDs obtained from reaction samples quenched at specified time points were then used to interpolate either m^7GpppA or m^7GTP concentrations using the calibration curves and used for quantification. […]

[4] = biological target: T4, ScAbd1-L59P-Y416C (Saccharomyces cerevisiae, UniProt P32783, L59P/Y416C); assay: Inhibition of GpppA methylation by ScAbd1-L59P-Y416C; assay type: biochemical; conditions: ScAbd1-L59P-Y416C 250 nM, 100 μM SAM, 250 μM GpppA, 30°C, 20 min
T4 construct: aa 1–436); made in house; host or cells: Escherichia coli BL21 (DE3) CodonPlus RIL
T4 sequence (P32783 whole entry L59P/Y416C, the tested form may be a part): as the sequence (P32783 whole entry, the tested form may be a part) above, with L59P, Y416C counted along it
Method: as §1, §3

[5] = system: recombinant S. cerevisiae Abd1; conditions: cited from earlier work
[6] = biological target: T5, ScAbd1-Y416N-R422H (Saccharomyces cerevisiae, UniProt P32783, R422H/Y416N); assay: Inhibition of GpppA methylation by ScAbd1-Y416N-R422H; assay type: biochemical; conditions: ScAbd1-Y416N-R422H 250 nM, 100 μM SAM, 250 μM GpppA, 30°C, 20 min; read-out: SAH IC50
T5 construct: aa 1–436); made in house; host or cells: Escherichia coli BL21 (DE3) CodonPlus RIL
T5 sequence (P32783 whole entry Y416N/R422H, the tested form may be a part): as the sequence (P32783 whole entry, the tested form may be a part) above, with Y416N, R422H counted along it
Method: as §1, §3

[7] = biological target: T6, ScAbd1-Y416A (Saccharomyces cerevisiae, UniProt P32783, Y416A); assay: Inhibition of GpppA methylation by ScAbd1-Y416A; assay type: biochemical; conditions: ScAbd1-Y416A 250 nM, 100 μM SAM, 250 μM GpppA, 30°C, 20 min
T6 construct: aa 1–436); made in house; host or cells: Escherichia coli BL21 (DE3) CodonPlus RIL
T6 sequence (P32783 whole entry Y416A, the tested form may be a part): as the sequence (P32783 whole entry, the tested form may be a part) above, with Y416A counted along it
Method: as §1, §3

[8] = system: Ecm1; conditions: methylation of GTP by Ecm1 in the presence of 5 μM SAM; cited from earlier work
[9] = system: S. cerevisiae abd1Δ pABD1* pSAM3 strains; assay: Spot test for growth of abd1Δ pSAM3 strains bearing ABD1 alleles on SFG-supplemented agar; assay type: cell-based, Saccharomyces cerevisiae; conditions: 30°C
Method: A library of PCR-mutated ABD1 alleles (ABD1*) in a CEN TRP1 plasmid under the control of the ABD1 promoter was constructed as described. The pABD1* library DNA was transfected into S. cerevisiae strain abd1Δ pABD1 (CEN URA3 ABD1) pSAM3 (2µ HIS3 SAM3). Trp^+ His^+ transformants were selected and then plated to agar medium containing 5-fluoroorotic acid (FOA) to counter-select against the CEN URA3 ABD1 plasmid. FOA survivors were plated to Trp- His- agar plates (25 ml) to which 300 µl of a 2.5 or 5 µM solution of SFG had been applied. Colonies that grew well on SFG-containing plates were candidates for harboring SFG-resistant ABD1* alleles. To ascertain whether SFG-resistance was linked to ABD1, the plasmids were recovered from individual SFG-resistant strains and amplified clonally by transformation in E. coli. The pABD1* plasmid DNAs isolated from E. coli were transfected into S. cerevisiae abd1Δ pABD1 (CEN URA3 ABD1) pSAM3 (2µ HIS3 SAM3) strain. Trp^+ His^+ transformants were selected and plated to FOA for counterselection against the CEN URA3 ABD1 plasmid. The resulting abd1Δ pABD1* (CEN TRP1 ABD1*) pSAM3 (2µ HIS3 SAM3) strains were tested in parallel with a control abd1Δ pABD1 (CEN TRP1 ABD1) pSAM3 (2µ HIS3 SAM3) strain for growth on Trp- His- agar plates (25 ml) supplemented with SFG (300 µl of 0.63, 1.25, 2.5 and 5 µM SFG per plate). […]

[10] = system: S. cerevisiae strain complemented with the mammalian capping apparatus; set-up: method as in PMID 10347220; conditions: cited from earlier work
[11] = biological target: human cap guanine-N7 methyltransferase RNMT; conditions: cited from earlier work
[12] = system: S. cerevisiae and an S. cerevisiae strain complemented with Candida albicans capping enzymes; set-up: method as in PMID 15964937, PMID 11035009; conditions: S. cerevisiae versus strain complemented with Candida albicans capping enzymes; cited from earlier work
[13] = system: ScAbd1 variants L59P-Y416C, Y416N-R422H, E124K-K163R-K311R-F387Y-Y416F and Y416A; assay: Inhibition of GpppA methylation, the four SFG-resistant ScAbd1 variants stated together; assay type: biochemical, Saccharomyces cerevisiae; conditions: versus wild-type ScAbd1
Method: as §1, §3

Nc1ncnc2c1ncn2[C@@H]1O[C@H](CSCC[C@H](N)C(=O)O)[C@@H](O)[C@H]1O [SAH, S-adenosylhomocysteine]
IC50 ([1]; read-out: IC50 of SAH): 12300 ± 4100 nM | IC50 ([2]; read-out: SAH IC50): 31600 ± 6800 nM | IC50 ([3]; read-out: SAH IC50): 35600 ± 2600 nM | IC50 ([4]; read-out: SAH IC50): 33500 ± 2300 nM | IC50 ([5]; methylation of GpppA by recombinant S. cerevisiae Abd1, read-out: IC50 of SAH): 21000 nM | IC50 [6]: 29700 ± 4700 nM | IC50 ([7]; read-out: SAH IC50): 16400 ± 2600 nM | IC50 [8]: 4000 nM

Nc1ncnc2c1ncn2[C@@H]1O[C@H](C[C@@H](N)CC[C@H](N)C(=O)O)[C@@H](O)[C@H]1O [SFG, sinefungin]
potency of SFG versus SAH (ratio of the IC50 values) ([1]; KlAbd1, GpppA substrate): 240 fold | IC50 ([1]; read-out: apparent IC50 of SFG): 52.1 ± 13.1 nM | SFG resistance of growth ([9]; single ABD1-Y416A mutation, abd1Δ pSAM3 (2μ HIS3 SAM3) strain background, agar): sufficed to confer SFG resistance | sensitivity to growth inhibition by SFG ([9]; three ABD1* strains (L59P-Y416C, Y416N-R422H, E124K-K163R-K311R-F387Y-Y416F) versus isogenic wild-type ABD1, Trp- His- agar): less sensitive to growth inhibition by SFG than the isogenic wild-type ABD1 strain | IC50 ([2]; read-out: SFG IC50): 65 nM and 65.1 nM | sensitivity/affinity for SFG versus SAH (ratio of IC50 values) ([2]; wild-type ScAbd1, GpppA substrate): 485 fold | potency of growth inhibition relative to S. cerevisiae with fungal capping system [10]: five-fold less potent | IC50 ([3]; read-out: SFG IC50): 1470 ± 67.7 nM | IC50 ([4]; read-out: SFG IC50): 1350 ± 69.9 nM | IC50 of SFG lower than that of SAH [11]: 130 fold | potency of growth inhibition, comparison of the two strains [12]: equal potency | IC50 ([5]; S. cerevisiae Abd1 in vitro, GpppA, read-out: apparent IC50 of SFG): 24 nM | tighter binding of SFG than of SAM or SAH ([5]; ScAbd1): up to 900 fold | potency of SFG versus SAH ([5]; methylation of GpppA by recombinant S. cerevisiae Abd1): 900 fold | IC50 ([7]; read-out: SFG IC50): 1470 ± 77 nM | IC50 [8]: 1500 nM | increase of the IC50 for SFG in the SFG-resistant mutants [13]: 20 fold
